Assay results reported in publication PMC9098913, “In vitro reconstitution of Escherichia coli divisome activation” (Nature Communications, 2022).

Experiment: Diffusion coefficient (Dcoeff) of FtsA from FRAP
Settings: for Diffusion Coefficient, mean: Fig. 3j
Text: We could also use the data from these bleaching experiments to quantify the membrane-binding kinetics and diffusion of membrane-bound proteins by analysing the change of the fluorescence profile during recovery.
Equimolar concentrations of Cy3- and Cy5-labelled FtsA, supplemented with 20% unlabelled FtsA were used to study FRET and FRAP. Five pre-bleach frames were acquired, followed by acceptor photobleaching of a rectangular ROI with 40% 641 nm laser power and a dwell size of 1 µs/pixel, 75% overlapping lines. The recovery of the signal or the increase in donor intensity were measured with either two frames or one frame per second.
Bleaching the acceptor dye leads to an increase in the donor intensity, which can be used to quantify the Foerster Resonance energy transfer (FRET)[48]. FRET efficiency was quantified with E%=Ipost/Ipost+Ipre⋅100 , where Ipost is the intensity of the […] and Ipre is the […]. […] To extract the contribution of both processes, we adjusted a routine recently published by Gerganova et al.[33]. In short, the code provides the contribution of both modes of recovery by analysing the shape of the fluorescence recovery profile. […] Contribution of diffusion leads to a change of the slope of the outer borders of the bleached region (S4h right). Thus, by measuring the change of the slope of the border recovery, diffusion and simple on/off binding can be distinguished. We developed “FRAPdiff”, a graphical user interface, which uses the original fit routine by David Rutkowski. It can be used directly on.tiff movies with annotated bleach regions as ImageJ ROIs. In addition, we added optional bleach correction, user selectable projection axis (x or y), and optional mirroring of the recovery profiles, if bleaching was not symmetric. The original fit routine for estimating the recovery and diffusion dynamics can be found at https://github.com/davidmrutkowski/1DReflectingDiffusion. FRAPdiff is available at 10.5281/zenodo.6400639[49] under the GPLv3 open-source license.

For “FtsA WT: wild-type E. coli actin-homologue FtsA, membrane anchor of FtsZ”, the “Diffusion Coefficient, mean” value (0.1 µM FtsA + N) was 1.61E-02 µm2/s, the “Diffusion Coefficient, mean” value (0.1 µM FtsA + Z&N) was 1.18E-02 µm2/s and the “Diffusion Coefficient, mean” value (0.1 µM FtsA + Z) was 1.69E-02 µm2/s. For the same substance, the “Diffusion Coefficient” value (0.1µM FtsA alone, Mean, n=18 (WT), 6 (R286W)) was 0.0268, the “Diffusion Coefficient, mean” value (0.1 µM FtsA alone) was 2.68E-02 µm2/s and the “Diffusion Coefficient” value (0.1µM FtsA alone, replicate Exp.1) was 5.58E-02. For the same substance, the “Diffusion Coefficient” value (0.1µM FtsA alone, replicate Exp.10) was 2.60E-03, the “Diffusion Coefficient” value (0.1µM FtsA alone, replicate Exp.11) was 5.85E-03 and the “Diffusion Coefficient” value (0.1µM FtsA alone, replicate Exp.12) was 4.68E-03. For the same substance, the “Diffusion Coefficient” value (0.1µM FtsA alone, replicate Exp.13) was 4.29E-02, the “Diffusion Coefficient” value (0.1µM FtsA alone, replicate Exp.14) was 3.12E-02 and the “Diffusion Coefficient” value (0.1µM FtsA alone, replicate Exp.15) was 2.09E-02. The “Diffusion Coefficient” value (0.1µM FtsA alone, replicate Exp.16) was 1.45E-02, the “Diffusion Coefficient” value (0.1µM FtsA alone, replicate Exp.17) was 4.66E-02 and the “Diffusion Coefficient” value (0.1µM FtsA alone, replicate Exp.18) was 2.25E-02. The “Diffusion Coefficient” value (0.1µM FtsA alone, replicate Exp.2) was 3.42E-03, the “Diffusion Coefficient” value (0.1µM FtsA alone, replicate Exp.3) was 1.87E-02 and the “Diffusion Coefficient” value (0.1µM FtsA alone, replicate Exp.4) was 5.22E-02. For the same substance, the “Diffusion Coefficient” value (0.1µM FtsA alone, replicate Exp.5) was 2.45E-02, the “Diffusion Coefficient” value (0.1µM FtsA alone, replicate Exp.6) was 4.34E-02 and the “Diffusion Coefficient” value (0.1µM FtsA alone, replicate Exp.7) was 4.83E-02. The “Diffusion Coefficient” value (0.1µM FtsA alone, replicate Exp.8) was 3.63E-02, the “Diffusion Coefficient” value (0.1µM FtsA alone, replicate Exp.9) was 8.38E-03 and the “Diffusion Coefficient” value (0.1µM, + FtsN&Z, Mean, n=5 (WT), 3 (R286W)) was 0.0118. For the same substance, the “Diffusion Coefficient” value (0.1µM, + FtsN&Z, replicate Exp.1) was 3.37E-03, the “Diffusion Coefficient” value (0.1µM, + FtsN&Z, replicate Exp.2) was 5.52E-03 and the “Diffusion Coefficient” value (0.1µM, + FtsN&Z, replicate Exp.3) was 9.34E-03. The “Diffusion Coefficient” value (0.1µM, + FtsN&Z, replicate Exp.4) was 2.03E-02, the “Diffusion Coefficient” value (0.1µM, + FtsN&Z, replicate Exp.5) was 2.02E-02 and the “Diffusion Coefficient” value (0.1µM, + FtsN, Mean, n=5 (WT), 3 (R286W)) was 0.0161. For the same substance, the “Diffusion Coefficient” value (0.1µM, + FtsN, replicate Exp.1) was 2.03E-02, the “Diffusion Coefficient” value (0.1µM, + FtsN, replicate Exp.2) was 6.39E-04 and the “Diffusion Coefficient” value (0.1µM, + FtsN, replicate Exp.3) was 1.18E-02. For the same substance, the “Diffusion Coefficient” value (0.1µM, + FtsN, replicate Exp.4) was 1.64E-02, the “Diffusion Coefficient” value (0.1µM, + FtsN, replicate Exp.5) was 3.14E-02 and the “Diffusion Coefficient” value (0.1µM, + FtsZ, Mean, n=8 (WT), 4 (R286W)) was 0.0169. For the same substance, the “Diffusion Coefficient” value (0.1µM, + FtsZ, replicate Exp.1) was 1.01E-02, the “Diffusion Coefficient” value (0.1µM, + FtsZ, replicate Exp.2) was 2.79E-03 and the “Diffusion Coefficient” value (0.1µM, + FtsZ, replicate Exp.3) was 1.71E-02. The “Diffusion Coefficient” value (0.1µM, + FtsZ, replicate Exp.4) was 3.53E-02, the “Diffusion Coefficient” value (0.1µM, + FtsZ, replicate Exp.5) was 2.97E-02 and the “Diffusion Coefficient” value (0.1µM, + FtsZ, replicate Exp.6) was 3.44E-03. The “Diffusion Coefficient” value (0.1µM, + FtsZ, replicate Exp.7) was 2.52E-02, the “Diffusion Coefficient” value (0.1µM, + FtsZ, replicate Exp.8) was 1.14E-02 and the “Diffusion Coefficient, mean” value (0.2 µM FtsA + N) was 1.32E-02 µm2/s. For the same substance, the “Diffusion Coefficient, mean” value (0.2 µM FtsA + Z&N) was 7.76E-03 µm2/s, the “Diffusion Coefficient, mean” value (0.2 µM FtsA + Z) was 8.12E-03 µm2/s and the “Diffusion Coefficient” value (0.2µM FtsA alone, Mean, n=24 (WT), 6 (R286W)) was 0.0177. The “Diffusion Coefficient, mean” value (0.2 µM FtsA alone) was 1.77E-02 µm2/s, the “Diffusion Coefficient” value (0.2µM FtsA alone, replicate Exp.1) was 1.00E-02 and the “Diffusion Coefficient” value (0.2µM FtsA alone, replicate Exp.10) was 2.11E-07. The “Diffusion Coefficient” value (0.2µM FtsA alone, replicate Exp.11) was 2.08E-02, the “Diffusion Coefficient” value (0.2µM FtsA alone, replicate Exp.12) was 4.11E-02 and the “Diffusion Coefficient” value (0.2µM FtsA alone, replicate Exp.13) was 2.52E-02. The “Diffusion Coefficient” value (0.2µM FtsA alone, replicate Exp.14) was 2.77E-02, the “Diffusion Coefficient” value (0.2µM FtsA alone, replicate Exp.15) was 1.77E-05 and the “Diffusion Coefficient” value (0.2µM FtsA alone, replicate Exp.16) was 1.11E-02. For the same substance, the “Diffusion Coefficient” value (0.2µM FtsA alone, replicate Exp.17) was 1.44E-03, the “Diffusion Coefficient” value (0.2µM FtsA alone, replicate Exp.18) was 2.14E-02 and the “Diffusion Coefficient” value (0.2µM FtsA alone, replicate Exp.19) was 1.18E-02. The “Diffusion Coefficient” value (0.2µM FtsA alone, replicate Exp.2) was 4.63E-02, the “Diffusion Coefficient” value (0.2µM FtsA alone, replicate Exp.20) was 1.47E-02 and the “Diffusion Coefficient” value (0.2µM FtsA alone, replicate Exp.21) was 5.71E-03. For the same substance, the “Diffusion Coefficient” value (0.2µM FtsA alone, replicate Exp.22) was 9.23E-03, the “Diffusion Coefficient” value (0.2µM FtsA alone, replicate Exp.23) was 4.39E-06 and the “Diffusion Coefficient” value (0.2µM FtsA alone, replicate Exp.24) was 1.05E-03. For the same substance, the “Diffusion Coefficient” value (0.2µM FtsA alone, replicate Exp.3) was 3.82E-02, the “Diffusion Coefficient” value (0.2µM FtsA alone, replicate Exp.4) was 2.69E-04 and the “Diffusion Coefficient” value (0.2µM FtsA alone, replicate Exp.5) was 3.65E-02. For the same substance, the “Diffusion Coefficient” value (0.2µM FtsA alone, replicate Exp.6) was 2.63E-02, the “Diffusion Coefficient” value (0.2µM FtsA alone, replicate Exp.7) was 1.83E-02 and the “Diffusion Coefficient” value (0.2µM FtsA alone, replicate Exp.8) was 5.09E-02. The “Diffusion Coefficient” value (0.2µM FtsA alone, replicate Exp.9) was 5.70E-03, the “Diffusion Coefficient” value (0.2µM, + FtsN&Z, Mean, n=8 (WT), 6 (R286W)) was 0.0078 and the “Diffusion Coefficient” value (0.2µM, + FtsN&Z, replicate Exp.1) was 1.04E-02. The “Diffusion Coefficient” value (0.2µM, + FtsN&Z, replicate Exp.2) was 2.82E-03, the “Diffusion Coefficient” value (0.2µM, + FtsN&Z, replicate Exp.3) was 5.82E-03 and the “Diffusion Coefficient” value (0.2µM, + FtsN&Z, replicate Exp.4) was 1.62E-02. The “Diffusion Coefficient” value (0.2µM, + FtsN&Z, replicate Exp.5) was 5.88E-03, the “Diffusion Coefficient” value (0.2µM, + FtsN&Z, replicate Exp.6) was 3.75E-03 and the “Diffusion Coefficient” value (0.2µM, + FtsN&Z, replicate Exp.7) was 5.36E-03. The “Diffusion Coefficient” value (0.2µM, + FtsN&Z, replicate Exp.8) was 1.18E-02, the “Diffusion Coefficient” value (0.2µM, + FtsN, Mean, n=7 (WT), 4 (R286W)) was 0.0132 and the “Diffusion Coefficient” value (0.2µM, + FtsN, replicate Exp.1) was 1.41E-02. The “Diffusion Coefficient” value (0.2µM, + FtsN, replicate Exp.2) was 1.35E-02, the “Diffusion Coefficient” value (0.2µM, + FtsN, replicate Exp.3) was 8.81E-03 and the “Diffusion Coefficient” value (0.2µM, + FtsN, replicate Exp.4) was 1.88E-02. The “Diffusion Coefficient” value (0.2µM, + FtsN, replicate Exp.5) was 1.36E-02, the “Diffusion Coefficient” value (0.2µM, + FtsN, replicate Exp.6) was 1.15E-02 and the “Diffusion Coefficient” value (0.2µM, + FtsN, replicate Exp.7) was 1.21E-02. For the same substance, the “Diffusion Coefficient” value (0.2µM, + FtsZ, Mean, n=7 (WT), 6 (R286W)) was 0.0081, the “Diffusion Coefficient” value (0.2µM, + FtsZ, replicate Exp.1) was 8.42E-03 and the “Diffusion Coefficient” value (0.2µM, + FtsZ, replicate Exp.2) was 4.10E-03. For the same substance, the “Diffusion Coefficient” value (0.2µM, + FtsZ, replicate Exp.3) was 4.88E-04.
